Measured values taken from a melting point compilation (Tetko et al.; mined from patent text by program, amines drawn as free bases though some values may be those of a salt).

Point of comparison: `C[C@H]1C(=O)OCCN1CC=CC(=O)Nc1cc2c(Nc3ccc(F)c(Cl)c3)ncnc2cc1OCC1CC1`, melting point 182 °C. Against it:
- CCCCCC(=O)Nc1ccn(C2OC(CO)C(O)C2O)c(=O)n1 (stereo not drawn) — lower, 131 to 136 °C
- COc1ccc(-c2[nH]ccc2S(=O)(=O)C(F)(F)F)cc1 — lower, 138 to 140 °C
- Cc1c(Cc2ccc(Cl)cc2)cccc1[N+](=O)[O-] — lower, 84 to 85 °C
- CC(C)n1c(CO)c(-c2ccc(F)cc2)c(-c2ccccc2)c1C(=O)NCCc1cccnc1 — lower, 167 to 169 °C
- C[C@@H](C[C@H](N)C(=O)O)C(=O)O — lower, 163 to 164 °C
- C=CCOc1ccccc1C1C(C(=O)OCC)=C(C)NC(C=O)=C1C(=O)OCC (stereo not drawn) — lower, 129 to 131 °C
- CCN(CC)C(=O)COc1cc(N)c(Cl)cc1C(=O)OC — lower, 97.5 to 99.5 °C
- COC(=O)C(=O)NC(=O)CC(F)=C(F)F — lower, 33 to 34 °C
- COCCn1nnc2cc3c(cc2c1=O)OCN(C1CC1)C3=O — lower, 103 to 105 °C
- Cc1nc2cc(-c3ccc(C=C4SC(=O)NC4=O)cn3)cc(C3CCCCC3)c2o1 — higher, 314 to 316 °C
- COC(=O)c1ccc(C2C(C(=O)c3ccc(OC)cc3)=C(O)C(=O)N2c2nnc(C)s2)cc1 (stereo not drawn) — higher, 255 to 257 °C
- CCc1nc2c(C)cc(C)nc2n1Cc1ccc(C(=C(SC)c2nnn[nH]2)c2ccccc2)cc1 — lower, 116 to 119 °C
- COc1ccc(-c2nc(CNC(C)(C)C)nc3cc(OC)c(OC)cc23)cc1OC — lower, 120 to 122 °C
- CC(C)n1c(=O)ccc2cnc(Nc3cccnc3)nc21 — lower, 156 to 158 °C
- CCN(CC)C(=O)CC1CCN(Cc2cnc3c(C)c(NC(=O)c4ccc(-c5ccc(F)cc5)cc4)ccc3c2)CC1 — lower, 158 to 160 °C
- C=CCC(C)(C)C(O)C(c1cccc(OC)c1)n1ccnc1 (stereo not drawn) — lower, 83 °C
- COc1ccc(C2CNCCc3c2cc(OC)c(OC)c3Cl)cc1 (stereo not drawn) — lower, 139 to 142 °C
- CCCn1c(=O)c2[nH]c(/C=C/c3cccc(OC)c3OC)nc2n(CCC)c1=O — higher, 236 °C
- c1ccc2c(c1)CCN(Cc1n[nH]c3c1CCc1ccccc1-3)C2 — not separable, 180 to 182 °C
- CCCCCCCCCCCCCCCCN(CCO)CCCCCCN(CCO)CCCCCCCCCCCCCCCC — lower, 29 to 30 °C
- FC(F)(F)c1cc(Cl)c(Oc2ccc3ccc(S)cc3c2)c(Cl)c1 — lower, 98 °C
- CNC(=O)C1CCCCN1C(=O)OC(C)(C)C (stereo not drawn) — lower, 83 to 83.5 °C
- c1ccc(C2=NC(c3ccccc3)C3=C(N2)c2nc(-c4ccccc4)cc(-c4ccccc4)c2CC3)cc1 (stereo not drawn) — lower, 142 to 144 °C
- CNC(=O)C(=NOC)c1ccccc1COc1ccc2c(c1)OCC2=O — lower, 149 to 151 °C
- COc1ccc(C2=NN(c3ccccn3)C(=O)[C@H]3CC=CC[C@@H]23)cc1OC (relative stereo) — lower, 147 to 148 °C
- COc1ccc2cc(C(C)C)ccc2c1 — lower, 63.5 to 64.5 °C
- Cc1ccc2c(c1)/C(=N\NC(N)=O)C(=O)N2CCN(C(C)C)C(C)C — lower, 159 to 161 °C
- COc1cc2c(c(Br)c1OC(C)=O)Sc1cc(F)ccc1N2 — higher, 224 to 226 °C
- N=C(NO)c1nn(-c2c(Cl)cc(C(F)(F)F)cc2Cl)c(C=O)c1SC(F)(F)F — lower, 72 to 75 °C
- COc1ccc(-c2ccnc3c(C(=O)c4cccs4)cnn23)cc1NC(=O)c1ccccc1 — higher, 201 to 203 °C
- Cn1ncc(C(=O)N2CCCC2)c1C(=O)Nc1ccn2nc(-c3ccccc3)nc2c1 — higher, 210 to 215 °C
- Cc1cccc2nc3c(cc12)oc1cccc(Cl)c13 — lower, 169 to 172 °C
- CN1CCN(Cc2nnc3n2CC(=O)N(C)c2ccc(Cl)cc2-3)CC1 — higher, 228 to 230 °C
- CC(C)C(=O)C(C)(C)C1(O)C(=O)N(Cc2ccc(Cl)cc2)c2ccccc21 (stereo not drawn) — lower, 105 to 107 °C
- CCOC(=O)Cc1ccc(N(C)c2nc(=O)c3cccnc3s2)cc1 — lower, 156 to 159 °C
- CC(C)(C)OC(=O)c1ccc(OCCCCl)cc1 — lower, 57.5 to 58.5 °C
- COc1ccc(C2=NN(CC(=O)c3ccc(Cl)cc3)C(=O)[C@H]3CCCC[C@@H]23)cc1OC (relative stereo) — lower, 142 to 144 °C
